{
  "source": "paper PMC3454376",
  "about": "“Salidroside Improves Behavioral and Histological Outcomes and Reduces Apoptosis via PI3K/Akt Signaling after Experimental Traumatic Brain Injury” (PLoS ONE, 2012)",
  "system": "mice subjected to controlled cortical impact injury",
  "assay": "Brain water content (brain edema) after CCI",
  "format": "in vivo",
  "conditions": "day 1, vehicle 84.5±1.2%",
  "protocol": "All animal procedures were approved by the Animal Research Committee at Cheng Hsin General Hospital (Animal permit number […] 101-08), and all procedures complied with the Guide for the Care and Use of Laboratory Animals published by the US National Institutes of Health (NIH Publication No. 85-23, revised 1996). Animals were housed under a 12-h light/dark cycle and at constant temperature (21-25°C) and humidity (45-50%). They were allowed free access to pellet chow and water. TBI in mice was induced by a CCI injury model as previously described. Briefly, 8-week-old male C57BL/6 mice (weighing 22-25 g) were anesthetized through the use of intraperitoneal injection of sodium pentobarbital (65 mg/kg; Rhone Merieux, Harlow, UK) and placed in a stereotaxic frame. A 5 mm craniotomy was performed over the right parietal cortex, centered on the coronal suture and 0.1 mm lateral to the sagittal suture, and injury to dura was avoided. […] Body temperature was monitored throughout the surgery by a rectal probe; temperature was maintained at 37.0±0.5°C using a heated pad. […] To determine the optimal dose of salidroside, a pilot study was performed using 2 different doses (20 and 50 mg/kg) administered 10 min after injury, and neurological deficits and tissue damage were evaluated as the main outcomes. […]",
  "data": [
    {"smiles": "OC[C@H]1O[C@@H](OCCc2ccc(O)cc2)[C@H](O)[C@@H](O)[C@@H]1O", "note": "[SALD, salidroside]", "values": [
      {"measurement": "brain water content, ipsilateral hemisphere", "setting": "20 mg/kg ip 10 min after CCI, sham 80.7±0.6%, P<0.05", "result": "81.0±0.6", "unit": "%"},
      {"measurement": "brain water content, ipsilateral hemisphere", "setting": "50 mg/kg ip 10 min after CCI, not significant", "result": "82.2±1.1", "unit": "%"}
    ]}
  ]
}
